Columns and labels:
[1] = system: pancreatic acinar carcinoma expressing the SST-2 receptor (CA20948); experiment: In vivo fluorescence imaging of rat pancreatic acinar carcinoma (CA20948); details: for uptake (fluorescence) in tumor at 45 minutes: 45 minutes post injection, rats with CA20948 tumor
Excerpt: (§1) A non-invasive in vivo fluorescence imaging apparatus was employed to assess the efficacy of contrast agents developed for tumor detection in animal models. A LaserMax Inc. laser diode of nominal wavelength 780 nm and nominal power of 40 mW was used. The detector was a Princeton Instruments model RTE/CCD-1317-K/2 CCD camera with a Rodenstock 10 mm F2 lens (stock #542.032.002.20) attached. An 830 nm interference […] (CVI Laser Corp., part # F10-830-4-2) was mounted in front of the CCD input lens such that only emitted fluorescent light from the contrast agent was imaged. Typically, an image of the animal was taken pre-injection of contrast agent. This image was subsequently subtracted (pixel by pixel) from the post injection images. However, the background subtraction was […] done once the animal had been removed from the sample area and returned at a later time for images taken several hours post injection.
The imaging apparatus and the procedure used are described in Example 12. Rat pancreatic acinar carcinoma expressing the SST-2 receptor (CA20948) was induced by solid implant technique in the left flank area, and palpable masses were detected nine days post implant. The images obtained at 2 and 30 minutes post injection are shown in FIG. 7E-F. FIGS. 7E-F are images of a rat with an induced pancreatic acinar carcinoma (CA20948) expressing the SST-2 receptor imaged at two minutes (FIG. 7E) and 30 minutes (FIG. 7F) post injection.
The imaging apparatus and the procedure used are described in Example 12, except that each animal received 500 μL of a 1.0 mg/mL solution of Cytate 1 solution of 25% dimethylsulfoxide in water.
Rat pancreatic acinar carcinoma expressing the SST-2 receptor (CA20948) were induced by solid implant technique in the left flank area, and palpable masses were detected 24 days post implant. Images were obtained at various times post injection.
(§2) Cytate 1 was evaluated in the CA20948 Lewis rat model. […] At 19 hours post injection the animal was again imaged (FIG. 9B). […] As a control, the organs were imaged again (FIG. 10A) and the image was compared with that of the same tissues in the uninjected rat (FIG. 10B).

[2] = Imaging of individual organs removed from CA20948 tumor-bearing rat; type: in vivo
Description: as §2
Individual organs were removed and imaged.

[3] = Monitoring of the blood clearance profile of peptide-dye conjugates; type: in vivo; details: rat ear; tail vein bolus; 830 nm after excitation at 780 nm
Excerpt: A laser of appropriate wavelength for excitation of the dye chromophore was directed into one end of a fiber optic bundle and the other end was positioned a few millimeters from the ear of a rat. A second fiber optic bundle was also positioned near the same ear to detect the emitted fluorescent light and the other end was directed into the optics and electronics for data collection. An interference filter (IF) in the collection optics train was used to select emitted fluorescent light of the appropriate wavelength for the dye chromophore.
Sprague-Dawley or Fischer 344 rats were used in these studies. The animals were anesthetized with urethane administered via intraperitoneal injection at a dose of 1.35 g/kg body weight. After the animals had achieved the desired plane of anesthesia, a 21 gauge butterfly with 12″ tubing was placed in the lateral tail vein of each animal and flushed with heparinized saline. The animals were placed onto a heating pad and kept warm throughout the entire study. The lobe of the left ear was affixed to a glass microscope slide to reduce movement and vibration.
Incident laser light delivered from the fiber optic was centered on the affixed ear. Data acquisition was then initiated, and a background reading of fluorescence was obtained prior to administration of the test agent. For Cytates 1 or 2, the peptide-dye conjugate was administered to the animal through a bolus injection, typically 0.5 to 2.0 mL, in the lateral tail vein. This procedure was repeated with several dye-peptide conjugates in normal and tumor-bearing rats. Representative profiles as a method to monitor blood clearance of the peptide-dye conjugate in normal and tumor-bearing animals are shown in FIGS. 12 to 16. The data were analyzed using a standard sigma plot software program for a one-compartment model.

[4] = system: Pancreatic Ductal Adenocarcinoma (DSL 6A); experiment: In vivo fluorescence imaging of pancreatic ductal adenocarcinoma (DSL 6A) tumors; design: species or system rat
Excerpt: as §1
DSL 6A tumors were induced in male Lewis rats in the left flank area by the introduction of material from a solid (donor) implant, and the tumors were palpable in approximately 14 days. The animals were anesthetized with xylazine:ketamine:acepromazine, 1.5:1.5:0.5 at 0.8 mL/kg via intramuscular injection. The area of the tumor (left flank) was shaved to expose the tumor and the surrounding surface area. […]

[5] = system: Prostatic Carcinoma (Dunning R3327-H); experiment: In vivo fluorescence imaging of prostatic carcinoma (R3327-H) tumors; design: species or system rat
Excerpt: as §1
The imaging apparatus and the procedure used are described as in Example 12. Prostate tumors (Dunning R3327-H) were induced in young male Copenhagen rats in the left flank area from a solid implant. These tumors grow very slowly and palpable masses were present 4-5 months post implant. FIGS. 7C-D are images of a rat with an induced prostatic carcinoma tumor (R3327-H) imaged at two minutes (FIG. 7C) and 30 minutes (FIG. 7D) post injection.

Compound: C[C@@H](O)[C@H](NC(=O)[C@@H]1CSSC[C@H](NC(=O)[C@@H](Cc2ccccc2)NC(=O)CCN2C(=CC=CC=CC=CC3=[N+](CCC(=O)O)c4ccc5ccccc5c4C3(C)C)C(C)(C)c3c2ccc2ccccc32)C(=O)N[C@@H](Cc2ccc(O)cc2)C(=O)N[C@H](Cc2c[nH]c3ccccc23)C(=O)N[C@@H](CCCCN)C(=O)N[C@@H]([C@@H](C)O)C(=O)N1)C(=O)O [Cytate 1, monoOctreotate-Bisethylcarboxymethylindocyanine dye]
- uptake (fluorescence) in tumor at 45 minutes [1]: still intense
- localization of dye in the tumor ([1]; 90 minutes post injection, CA20948 Lewis rat model): strong localization
- tumor visualization ([1]; 19 hours post injection, CA20948 Lewis rat model): easily observed
- time of maximal uptake into the tumor ([1]; CA20948 tumor, 500 μL of 1.0 mg/mL in 25% dimethylsulfoxide in water): about five
- persistence of dye fluorescence in the tumor ([1]; CA20948 tumor, post-injection): remained intense in the tumor for several hours
- uptake in adrenals ([2]; removed organ imaged): High uptake
- uptake in heart ([2]; removed organ imaged): significantly lower uptake
- uptake in liver ([2]; removed organ imaged): significantly lower uptake
- uptake in pancreas ([2]; removed organ imaged): High uptake
- uptake in spleen ([2]; removed organ imaged): significantly lower uptake
- uptake in muscle ([2]; removed tissue imaged): significantly lower uptake
- uptake in tumor tissue ([2]; removed tissue imaged): High uptake
- blood fluorescence signal after bolus injection (rise) [3]: rapidly increased to a peak value
- blood fluorescence signal after peak (clearance from the bloodstream) [3]: decayed as a function of time

Compound: C[C@@H](O)[C@H](NC(=O)[C@@H]1CSSC[C@H](NC(=O)[C@@H](Cc2ccccc2)NC(=O)CCN2C(=CC=CC=CC=CC3=[N+](CCC(=O)N[C@H](Cc4ccccc4)C(=O)N[C@H]4CSSC[C@@H](C(=O)N[C@H](C(=O)O)[C@@H](C)O)NC(=O)[C@H]([C@@H](C)O)NC(=O)[C@H](CCCCN)NC(=O)[C@@H](Cc5c[nH]c6ccccc56)NC(=O)[C@H](Cc5ccc(O)cc5)NC4=O)c4ccc5ccccc5c4C3(C)C)C(C)(C)c3c2ccc2ccccc32)C(=O)N[C@@H](Cc2ccc(O)cc2)C(=O)N[C@H](Cc2c[nH]c3ccccc23)C(=O)N[C@@H](CCCCN)C(=O)N[C@@H]([C@@H](C)O)C(=O)N1)C(=O)O [Cytate 2, bis Octreotate-Bisethylcarboxymethylindocyanine dye]
- blood fluorescence signal after bolus injection (rise) [3]: rapidly increased to a peak value
- blood fluorescence signal after peak (clearance from the bloodstream) [3]: decayed as a function of time

Compound: CC1(C)C(/C=C/C=C/C=C/C=C2\N(CCCCS(=O)(=O)O)c3ccc4ccccc4c3C2(C)C)=[N+](CCCCS(=O)(=O)[O-])c2ccc3ccccc3c21 [ICG, indocyanine green, reference compound]
- dye intensity in the tumor ([4]; 30 minutes post-ICG injection vs 2 minutes, DSL 6A tumor, male Lewis rats, 500 μL of 0.42 mg/mL in water, tail vein): considerably diminished
- perfusion of the agent into the tumor ([4]; DSL 6/A (pancreatic) tumor line, CCD camera): slow perfusion of the agent over time into the tumor
- dye intensity in the tumor ([5]; 30 minutes post-ICG injection vs 2 minutes, R3327-H tumor, male Copenhagen rats): considerably diminished
- perfusion of the agent into the tumor ([5]; Dunning R3327H (prostate) tumor line, CCD camera): slow perfusion of the agent over time into the tumor
- dye intensity in the tumor ([1]; 30 minutes post-ICG injection vs 2 minutes, CA20948 tumor): considerably diminished and almost absent
- uptake (fluorescence) in tumor at 45 minutes [1]: mostly cleared
- perfusion of the agent into the tumor ([1]; CA20948 (pancreatic) tumor line, absent after 30 minutes post injection): slight but transient perfusion
- non-specific localization into the tumor line ([1]; CA20948, compared to the other two tumor lines): no non-specific localization

From US7566444B2, “Versatile hydrophilic dyes” (Mallinckrodt Inc., priority 2000, dated 2009)
